The compound `CC(C)C[C@H](NC(C)C)C(=O)O` came in with a melting point of 293 to 296 °C.
Next, `COc1ccc(C(=O)Nc2c(Cl)cncc2Cl)c2c1[nH]c1ccccc12`: greater than 250 °C.
Next, `COc1c(C)cc(P(c2cc(C)c(OC)c(C)c2)c2cc(C)c(OC)c(C)c2)cc1C`: 176 °C; `COc1ccc(-c2c(CO)c(CO)c3n2Cc2ccccc2C3)cc1`: 174 to 176 °C.
`CS(=O)(=O)Cc1ccc(C(=NN)c2ccc(Cl)cc2)cc1` displayed a melting point of 52 to 54 °C.
Regarding `CCOC(=O)C1(C(=O)Nc2ccc(Br)cc2C)CCC1`, the melting point fell in the range of 61 to 64 °C.
Take `N=C(N)Nc1cc(C(=O)O)ccc1N1C(=O)CCC1CO` (stereo not drawn): the melting point lay in the range of 253 to 257 °C.
With `O=C1CCC(N2Cc3c(OCc4nc(CN5CCOCC5)cs4)cccc3C2=O)C(=O)N1` (stereo not drawn), the melting point lay within 218 to 220 °C.
As for `O=[N+]([O-])c1ccccc1S(=O)(=O)NOCc1ccccc1`, the melting point lay in the range of 148 to 151 °C.
Under `CC#CC(C)(C)NC(=O)C(OCC)Oc1cc(Cl)cc(Cl)c1` (stereo not drawn) stands 76.5 °C; under `C=Cc1ccc2c(c1)CC(NC(=O)OC(C)(C)C)CC2` (stereo not drawn), 89 to 91 °C.
`CS(=O)(=O)c1ccc(-c2c(F)c(F)c(F)c(F)c2-c2ccc(F)cc2)cc1` registered a melting point of 134 to 135 °C.
In turn, `CC1(C2CCCC2)Cc2cc(OCC#N)c(Cl)c(Cl)c2C1=O` (stereo not drawn) registered a melting point of 129 to 131 °C.
Next, `Cc1cnc(I)nc1Oc1cc(C(F)(F)F)nn1C`: 94 °C; `O=C1NCC(Cc2ccccc2C(F)(F)F)O1` (stereo not drawn): 142 to 143 °C.
The compound `Cc1ccc(OCC#CI)cn1` registered a melting point of 155 to 157 °C.
Consider `O=C(O)Cc1cccc2nnsc12`, for which the melting point is 148 to 150 °C.
The compound `Nc1nccnc1C(=O)NCCN1CCC(Nc2nc3ccccc3n2Cc2ccc(F)cc2)CC1` showed a melting point of 157 °C.
With `COc1cc(C=O)ccc1OCc1nc(-c2ccccc2)cn1C`, the melting point was 128 to 129 °C.
`CCOC(=O)c1ccccc1-n1c(=O)c2ccccc2n(CCCCBr)c1=O` came in with a melting point of 101 to 102 °C.
`CC(C)CC(=O)Nc1cccc(-c2ccnc3c(-c4cccc(CN5CCOCC5)c4)cnn23)c1` had a melting point of 170 to 173 °C.
`CN(C)CCCN(C=O)C1CCC2C3CCc4ccccc4C3CCC21C` (stereo not drawn): the melting point was in the range of 123 to 125 °C.
For `CC(=S)c1ccc(-c2ccccc2)cc1`, the melting point fell in the range of 48 to 50 °C.
Next, `O=C(OCc1ccccc1)c1cc(C(=O)OCc2ccccc2)[nH]n1`: 120 °C; `N#Cc1ccc(-c2ccncc2OC2SCC(O)C(O)C2O)cc1` (stereo not drawn): 238 °C; `COc1ccc(C=CC(=O)O)cc1-c1cc2c(cc1OCc1ccccc1)C(C)(C)CCC2(C)C`: 200 to 202 °C.
Next, `C=C(C(=O)OCC)c1cccc(-c2cc3c(cc2C)C(C)(C)CCC3(C)C)c1`: 70 to 72 °C; `Brc1cccc(OCCOc2nccnc2N2CCNCC2)c1`: 62 to 63 °C; `Cc1cccc(-c2n[nH]cc2-c2ccc(F)c(-c3ccc(N4CCOCC4)nc3)c2)n1`: 85 to 87 °C.
Next, `COc1ccc(C2CC(=O)OC(=O)C2)cc1OC`: 118 to 120 °C.
The compound `CCOC(=O)COc1cc2c(c(Cl)c1Cl)C(=O)C(C)(C(C)C)C2Br` (stereo not drawn) displayed a melting point of 83 to 85 °C.
`O=c1ccn(-c2cccc(C(F)(F)F)c2)nc1-c1nncn1-c1ccccc1` showed a melting point of 103 to 104 °C.
In the case of `C=CCSc1cc(C(=O)O)cc(S(=O)(=O)Cl)c1Oc1ccccc1`, the melting point lay within 160 to 162 °C.
Under `CCOC(C)O[C@H]1C(=O)N(C(=O)OC(C)(C)C)[C@H]1C=Cc1ccccc1` (stereo partly drawn) stands 69 to 73 °C; under `CC(C(=O)c1ccc(F)cc1F)c1ncccn1` (stereo not drawn), 118 to 119 °C.
For the compound `CCc1nc2c(cnn2CC)c(NC2CCOCC2)c1CNC(=O)c1cccc(C(=O)NCc2ccc(C)c(-c3cccc(CN4CCCNCC4)c3)c2)c1`, the melting point lay within 118 to 120 °C.
As for `CC1SC(=NO)C(C)(C)NC1=O` (stereo not drawn), the melting point was in the range of 199 to 202 °C.
As to `COC(=O)CC1CC(CCc2c(-c3ccc(F)cc3)c(-c3ccccc3)c(C(=O)Nc3ccc(C(=O)OC)cn3)n2C(C)C)OC(C)(C)O1` (stereo not drawn), the melting point lay within 77 to 84 °C.
`Cc1ccc(C(=O)CO)cc1` had a melting point of 83 to 87 °C.
For `NC(Cc1ccccc1)C(=O)Nc1nc2ccccc2c(=O)o1` (stereo not drawn), the melting point was in the range of 215 to 216 °C.
With `CCCCCCCCCCCCCCCC(N=C=O)S(=O)(=O)c1ccc2ccccc2c1` (stereo not drawn), the melting point lay within 152 to 155 °C.
Regarding `COc1nc(OC)nc(-n2c(C(F)(F)F)nc3cc(C)ccc32)n1`, the melting point lay within 137 to 140 °C.
Under `CCCCCCCCCCCCCCCCNc1ccc(C(=O)NS(=O)(=O)c2ccc(N)cc2)cc1` stands 193 to 196 °C.
Under `N=C(N)c1ccc(NC(=O)N(c2cccc(C(=N)N)c2)C2CCCCCC2)cc1` stands 204 to 206 °C.
Under `O=C(O)c1conc1-c1ccccc1` stands 163 to 164 °C.
`Cc1oc(-c2ccccc2)nc1CCOc1ccc(CCC(=O)NC(N)=O)cc1` returned a melting point of 177 to 178 °C.
With `CC(=O)c1ccc(OCCOc2ccc3ccccc3c2)cc1C`, the melting point fell in the range of 128 to 130 °C.
Compound `COc1ccc(C2(c3ccc(OC)c(OC)c3)CCC(=O)O2)cc1OC` returned a melting point of 133 to 134 °C.
Compound `CCC1CN(c2cccc(C(C)C)c2)C(=O)C1c1cccc(Cl)c1` (stereo not drawn) came in with a melting point of 88.5 to 90 °C.
`COc1cc(CCN2CCN(c3nsc4ccccc34)CC2)c(NC(=O)Nc2ccccc2C)cc1OC` gave a melting point of 200 °C.
`COc1ccc(-c2cc3ncc(SC)c(O)c3s2)cc1`: the melting point is 283 to 287 °C.
The compound `O=S(=O)(Nc1ccc(Oc2cccc3cccnc23)c(Cl)c1)c1cccc(C(F)(F)F)c1` came in with a melting point greater than 245 °C.
As for `CCOC(=O)C(=Cc1cccc([N+](=O)[O-])c1)C(=O)CCl`, the melting point lay within 108 to 111 °C.
For `N#Cc1ccc2oc3ncccc3c(=O)c2c1`, the melting point amounted to 260 °C.
Consider `Cc1ccc(C2=NOC(c3cc(Cl)cc(Cl)c3)(C(F)(F)F)C2)cc1Cl` (stereo not drawn), for which the melting point lay within 97 to 99 °C.
Regarding `N#Cc1nc(Cl)c(-c2c(F)cccc2Cl)c(Cl)c1Br`, the melting point amounted to 90 °C.
As to `COc1ccc(-c2coc3cc(OCC(O)CNC4CCCCC4)ccc3c2=O)cc1OC` (stereo not drawn), the melting point fell in the range of 70 to 71 °C.
With `CCOc1cc2cc3ncc(C#N)c(Nc4cc(OC)c(Cl)cc4C)c3cc2cc1OCCN1CCOCC1`, the melting point was in the range of 195 to 196 °C.
In the case of `COc1ccc(S(=O)(=O)C2(C(=O)NO)CCN(Cc3ccccc3)CC2)cc1`, the melting point lay within 90 to 95 °C.
Consider `O=Cc1cc2cc(OCc3ccccc3)ccc2nc1Cl`, for which the melting point fell in the range of 180 to 182 °C.
Under `CCOc1ncc(C(C)=O)cc1C(=O)OC` stands 111 to 112 °C.
Consider `CO[C@H]1c2ccn3c(C)c(C)nc3c2N[C@H](c2ccccc2)[C@H]1O`, for which the melting point lay within 108 to 110 °C.
Next, `O=C(c1ccccc1)c1cc(O)ccc1O`: 160 to 162 °C.
Compound `Cc1nc(-c2ccc(Cl)cc2)c2nc(-c3ccccc3)cc-2[nH]1` showed a melting point of 281 to 283 °C.
As for `OC1CCCc2nc3ccccc3c(NCc3cccc(F)c3)c21` (stereo not drawn), the melting point was found to be 128 °C.
In turn, `Cc1ccc(-c2ccc3c(c2)C=C(C(=O)Nc2ccc(CNc4ccccn4)cc2)CCO3)cc1` returned a melting point of 189 to 190 °C.
As for `COc1ccc(S(=O)(=O)Nc2ncnc(OCCO)c2Cc2ccccc2OC)cc1`, the melting point fell in the range of 161 to 162 °C.
Consider `O=C(CCC(CSc1ccc2ccccc2c1)C(=O)O)OCc1ccccc1` (stereo not drawn), for which the melting point was 94 to 95 °C.
Under `O=C(O)CCCOc1ccc(OCCC(c2ccccc2)(c2ccccc2)c2ccccc2)cc1` stands 138 to 139 °C; under `CCCc1nc2ccccc2n1Cc1ccc(C2=C(C(=O)O)CCC2)cc1`, 224 to 226 °C; under `COc1cc2occ(C(=O)Nc3cccnc3)c2cc1Br`, 210 to 212 °C.
In the case of `CC(=O)Nc1ccc2c(c1)C(=O)c1cc(NC(C)=O)ccc1C2=O`, the melting point stood at 340 °C.
For the compound `CC(C)c1ccc(N(Cc2ccc(N(C)C)cc2)C(=O)C2CCCc3ccccc32)cc1` (stereo not drawn), the melting point came to 121 °C.
`CCc1c(N)c(C(N)=O)nn1C1CN(CC)C1` returned a melting point of 155 to 157 °C.
As for `Cc1ccc(-c2cncc(/C=C/C(=O)O)c2)cc1`, the melting point lay in the range of 208 to 211 °C.
Compound `CC(C)(C)c1cc(C(O)COc2ccc(C(=O)O)c(O)c2)cc(C(C)(C)C)c1O` (stereo not drawn) registered a melting point of 132 to 133 °C.
As to `O=C(CCC1CCCC1)Nc1ccc2ncn3c(=O)c(C(=O)O)cnc3c2c1`, the melting point lay within 279 to 283 °C.
In the case of `O=C1NC(=O)C(c2ccc(N=Cc3ccc(Cl)c(Cl)c3)cc2)S1` (stereo not drawn), the melting point lay in the range of 216 to 218 °C.
`CCN(CC)c1ccc(Nc2ncc3ccc(=O)n(CC)c3n2)cc1` returned a melting point of 108 to 109 °C.
`O=C1CCCC(C(=O)c2ccc(Cc3ccc(F)cc3)o2)=C1O`: the melting point lay in the range of 133 to 134 °C.
With `O=C(NC(=O)N(SN1CCCC1=O)c1ccc(Oc2ccc(C(F)(F)F)cc2Cl)cc1F)c1c(F)cccc1F`, the melting point was in the range of 125 to 126 °C.
The compound `CCCCCCCCCCCCC(C)CNc1cc(C)c([N+](=O)[O-])cc1C(=O)O` (stereo not drawn) gave a melting point of 98 to 100 °C.
`O=C(O)CCc1cn(Cc2ccc(OCc3ccccc3)cc2)nc1-c1ccccc1` registered a melting point of 147 to 148 °C.
Under `CS(=O)(=O)c1ccc(Oc2cc(OCc3cccc(Cl)n3)c3[nH]c(C4=NCC(CCO)S4)cc3c2)cc1` (stereo not drawn) stands 93 to 94 °C; under `CCCNc1cc(C(=O)OCC)cc(S(N)(=O)=O)c1Oc1ccccc1`, 150 to 151 °C; under `Cc1ccc(C#N)c2c([N+](=O)[O-])ccc(Cl)c12`, 179 to 180 °C.
With `CN(Cc1cc2c(=O)c(C(=O)NCc3ccc(Cl)cc3)cn(C)c2s1)C[C@@H](O)c1ccco1`, the melting point lay within 159 to 162 °C.
The compound `CC(C)(F)c1cnn2c(-c3ccc(F)c(-c4c(F)cccc4C#N)c3)cnc2n1` came in with a melting point of 187 to 188 °C.

What is called melting point is the temperature of the solid-liquid transition.

For the origin of these results see a melting point compilation (Tetko et al.; mined from patent text by program, amines drawn as free bases though some values may be those of a salt).
